Tested on: 941728-121-R-J1-PDC complex spheroid viability
Assay: Anticancer human tumor 941728-121-R-J1-PDC patient-derived lung adenocarcinoma cell line growth inhibition [RAS]
Details: for IC50: curve of first compound; for viability, T/C: stronger effect = lower value
Summary of the method: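 Tumour cells grown as complex spheroids with HUVEC endothelial cells and mesenchymal stem cells, treated with RAS pathway inhibitor combinations. Each agent spans half-log steps from near clinical Cmax, or 10 microM where Cmax is unknown.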

[1] = second compound 0.00316 µM, first compound 0.0316 µM
[2] = second compound 0.00316 µM, first compound 0.1 µM
[3] = second compound 0.00316 µM, first compound 0.316 µM
[4] = second compound 0.00316 µM, first compound 1 µM
[5] = second compound 0.01 µM, first compound 0.0316 µM
[6] = second compound 0.01 µM, first compound 0.1 µM
[7] = second compound 0.01 µM, first compound 0.316 µM
[8] = second compound 0.01 µM, first compound 1 µM
[9] = second compound 0.0316 µM, first compound 0.0316 µM
[10] = second compound 0.0316 µM, first compound 0.1 µM
[11] = second compound 0.0316 µM, first compound 0.316 µM
[12] = second compound 0.0316 µM, first compound 1 µM
[13] = second compound 0.1 µM, first compound 0.0316 µM
[14] = second compound 0.1 µM, first compound 0.1 µM
[15] = second compound 0.1 µM, first compound 0.316 µM
[16] = second compound 0.1 µM, first compound 1 µM
[17] = second compound 0.316 µM, first compound 0.0316 µM
[18] = second compound 0.316 µM, first compound 0.1 µM
[19] = second compound 0.316 µM, first compound 0.316 µM
[20] = second compound 0.316 µM, first compound 1 µM
[21] = second compound 1 µM, first compound 0.0316 µM
[22] = second compound 1 µM, first compound 0.1 µM
[23] = second compound 1 µM, first compound 0.316 µM
[24] = second compound 1 µM, first compound 1 µM
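Further: spheroids exposed to compounds for 7 days before readout.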
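Wherever viability, T/C is given: 100% = DMSO vehicle control viability.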

For `CC(=O)OC12COC1CC(O)C1(C)C(=O)C(O)C3=C(C)C(OC(=O)C(O)C(NC(=O)OC(C)(C)C)c4ccccc4)CC(O)(C(OC(=O)c4ccccc4)C21)C3(C)C` (centres undefined) + C=CC(=O)N1CCN(c2nc(OCC3CCCN3C)nc3c(F)c(-c4nc(N)cc(C)c4C(F)(F)F)c(Cl)cc23)C(C)C1, which IC50 (second compound 0.00316 µM) is on record?
The IC50 was < 31.6 nM.

And the IC50 (second compound 0.01 µM)?
The IC50 was < 31.6 nM.

What about the IC50 (second compound 0.0316 µM) of the same compound?
The IC50 was < 31.6 nM.

What about the IC50 (second compound 0.1 µM) of the same compound?
Its IC50 is < 31.6 nM.

What about the IC50 (second compound 0.316 µM) of the same compound?
Its IC50 is < 31.6 nM.

What about the IC50 (second compound 1 µM) of the same compound?
The IC50 was < 31.6 nM.

And the viability, T/C [1]?
The viability, T/C was 15.8%.

And the viability, T/C [2]?
The viability, T/C was 13.3%.

And the viability, T/C [3]?
Its viability, T/C is 13.2%.

What about the viability, T/C [4] of the same compound?
The viability, T/C was 12.3%.

And the viability, T/C (second compound 0.00316 µM, first compound 3.16 µM)?
Its viability, T/C is 13.6%.

What about the viability, T/C (second compound 0.00316 µM, first compound 10 µM) of the same compound?
Its viability, T/C is 20.4%.

And the viability, T/C [5]?
The viability, T/C was 15.8%.

And the viability, T/C [6]?
Its viability, T/C is 10.3%.

And the viability, T/C [7]?
Its viability, T/C is 12.7%.

What about the viability, T/C [8] of the same compound?
Its viability, T/C is 12.2%.

And the viability, T/C (second compound 0.01 µM, first compound 3.16 µM)?
Its viability, T/C is 12.1%.

What about the viability, T/C (second compound 0.01 µM, first compound 10 µM) of the same compound?
Its viability, T/C is 12.1%.

What about the viability, T/C [9] of the same compound?
The viability, T/C was 14.4%.

And the viability, T/C [10]?
The viability, T/C was 14.1%.

What about the viability, T/C [11] of the same compound?
Its viability, T/C is 11%.

What about the viability, T/C [12] of the same compound?
Its viability, T/C is 12.8%.

And the viability, T/C (second compound 0.0316 µM, first compound 3.16 µM)?
Its viability, T/C is 13.1%.

And the viability, T/C (second compound 0.0316 µM, first compound 10 µM)?
The viability, T/C was 12.2%.

And the viability, T/C [13]?
The viability, T/C was 14.1%.

What about the viability, T/C [14] of the same compound?
Its viability, T/C is 15.6%.

What about the viability, T/C [15] of the same compound?
The viability, T/C was 12%.

And the viability, T/C [16]?
The viability, T/C was 13.8%.

And the viability, T/C (second compound 0.1 µM, first compound 3.16 µM)?
Its viability, T/C is 13.8%.

What about the viability, T/C (second compound 0.1 µM, first compound 10 µM) of the same compound?
Its viability, T/C is 12.6%.

What about the viability, T/C [17] of the same compound?
Its viability, T/C is 13.5%.

And the viability, T/C [18]?
The viability, T/C was 13%.

And the viability, T/C [19]?
The viability, T/C was 14.1%.

What about the viability, T/C [20] of the same compound?
Its viability, T/C is 13.8%.

What about the viability, T/C (second compound 0.316 µM, first compound 3.16 µM) of the same compound?
Its viability, T/C is 13.1%.

What about the viability, T/C (second compound 0.316 µM, first compound 10 µM) of the same compound?
Its viability, T/C is 16.2%.

What about the viability, T/C [21] of the same compound?
The viability, T/C was 14.7%.

And the viability, T/C [22]?
Its viability, T/C is 13.5%.

What about the viability, T/C [23] of the same compound?
The viability, T/C was 12.6%.

And the viability, T/C [24]?
Its viability, T/C is 14.6%.

What about the viability, T/C (second compound 1 µM, first compound 3.16 µM) of the same compound?
Its viability, T/C is 14%.

What about the viability, T/C (second compound 1 µM, first compound 10 µM) of the same compound?
The viability, T/C was 14.5%.

Which results are given for `Nc1ccn(C2OC(CO)C(O)C2(F)F)c(=O)n1` (centres undefined) + C=CC(=O)N1CCN(c2nc(OCC3CCCN3C)nc3c(F)c(-c4nc(N)cc(C)c4C(F)(F)F)c(Cl)cc23)C(C)C1?
IC50 (second compound 0.00316 µM): < 3.16 nM; IC50 (second compound 0.01 µM): < 3.16 nM; IC50 (second compound 0.0316 µM): < 3.16 nM; IC50 (second compound 0.1 µM): < 3.16 nM; IC50 (second compound 0.316 µM): < 3.16 nM; IC50 (second compound 1 µM): < 3.16 nM; viability, T/C (second compound 0.00316 µM, first compound 0.00316 µM): 17.8%; viability, T/C (second compound 0.00316 µM, first compound 0.01 µM): 14.8%; viability, T/C [1]: 15.2%; viability, T/C [2]: 14%; viability, T/C [3]: 15.9%; viability, T/C [4]: 15.6%; viability, T/C (second compound 0.01 µM, first compound 0.00316 µM): 17.7%; viability, T/C (second compound 0.01 µM, first compound 0.01 µM): 14.7%; viability, T/C [5]: 16.3%; viability, T/C [6]: 16.2%; viability, T/C [7]: 14.5%; viability, T/C [8]: 13.3%; viability, T/C (second compound 0.0316 µM, first compound 0.00316 µM): 14.9%; viability, T/C (second compound 0.0316 µM, first compound 0.01 µM): 15.6%; viability, T/C [9]: 15.7%; viability, T/C [10]: 13.3%; viability, T/C [11]: 14.9%; viability, T/C [12]: 15.2%; viability, T/C (second compound 0.1 µM, first compound 0.00316 µM): 16.9%; viability, T/C (second compound 0.1 µM, first compound 0.01 µM): 13.9%; viability, T/C [13]: 15.4%; viability, T/C [14]: 14.1%; viability, T/C [15]: 12.1%; viability, T/C [16]: 12.6%; viability, T/C (second compound 0.316 µM, first compound 0.00316 µM): 16.4%; viability, T/C (second compound 0.316 µM, first compound 0.01 µM): 16.1%; viability, T/C [17]: 15.9%; viability, T/C [18]: 14.3%; viability, T/C [19]: 15.8%; viability, T/C [20]: 13.8%; viability, T/C (second compound 1 µM, first compound 0.00316 µM): 18.9%; viability, T/C (second compound 1 µM, first compound 0.01 µM): 15.8%; viability, T/C [21]: 15.8%; viability, T/C [22]: 16.6%; viability, T/C [23]: 14%; viability, T/C [24]: 12.6%
